In US20210261583A1, “Synthetic Cytotoxic Molecules, Drugs, Methods of Their Synthesis and Methods of Treatment” (The Regents of the University of California, priority 2018, published 2021):
Counter-ions that a name gives are not always drawn. Like-named read-outs stand apart in the source and are kept apart here.

Legend:
[1] = tested on: cancer cells; assay: Cytotoxicity (IC50); format: cell-based
[2] = tested on: CD98; assay: Nutrient transporter (CD98) down-regulation; format: cell-based; conditions: for activity in downregulation tests: compared to hydroxy pyrrolidine ketone progenitors 20, 21, 23 and 24
[3] = Racemization/epimerization, deuterium incorporation and cyclization in protic solvents; format: physicochemical; conditions: for time to complete incorporation of deuterium at C-2: D2O, room temperature; for racemization / epimerization after N-Boc deprotection: dissolved in protic solvents such as water and MeOH, gives 1:1 mixture of enantiomers or epimers
Protocol: In the presence of D2O at room temperature, deuterium was incorporated at C-2 confirming a fast enolization followed by β-elimination and ring closure. […] The incorporation of deuterium is complete in 30 min at pH=10, and in 3 hours at pH=7.
It was therefore decided to further investigate this new structural analog and we prepared the bicyclic enantiopure pyrrolizidine 17 bearing the aryloctyl appendage on C-3, in analogy with our lead compound 3 as well as the monocyclic variant 18, to check the effect of the substituent position and the nature of the azacycles (FIG. 7).

[4] = tested on: vacuolation; assay: Vacuolation score; format: cell-based; conditions: for activity in vacuolation tests: compared to hydroxy pyrrolidine ketone progenitors 20, 21, 23 and 24
[5] = at concentration near IC50 / where it kills 50% of cells

## CCCCCCCCc1ccc(C(=O)C[C@H]2C[C@H](CO)CN2)cc1.Cl (mixture of isomers) [Compound 12, 2-((2R,4S)-4-(Hydroxymethyl)pyrrolidin-2-yl)-1-(4-octylphenyl)ethan-1-one hydrochloride]
[1]
  IC50: 2 µM
[2]; 2.5 μM
  inhibition at 2.5 µM: 44%
[2]; 10 μM
  inhibition at 10 µM: 50%
[3]; pH=7
  time to complete incorporation of deuterium at C-2: 3 h
[3]; pH=10
  time to complete incorporation of deuterium at C-2: 0.5 h
[3]
  racemization / epimerization after N-Boc deprotection: prone to racemization and epimerization
[3]; pH≤3 in H2O
  stability to epimerization: stable only in very acidic conditions

## CCCCCCCCc1ccc(C(C[C@@H]2CCCN2)OC)cc1.Cl (single isomer, unassigned) [Compound 10, (2S)-2-(2-Methoxy-2-(4-octylphenyl)ethyl)pyrrolidine hydrochloride]
[4]; 2.5 μM
  Vacuolation score: 0

## CCCCCCCCc1ccc(C(C[C@@H]2CCCN2)OC)cc1.Cl (single isomer, unassigned) [Compound 10, hydrochloride]
[1]
  IC50: 3 µM
[2]; 2.5 μM
  inhibition at 2.5 µM: 15%
[2]; 10 μM
  inhibition at 10 µM: 58%

## CCCCCCCCc1ccc([C@H]2CCN[C@@H]2CO)cc1.Cl [Compound 3, reference compound]
[1]
  IC50: 2.1 µM
[2]; 2.5 μM
  % CD98 down-regulation: 42%
[2]; 10 μM
  % CD98 down-regulation: 66%

## CCCCCCCCc1ccc(C(=O)C[C@@H]2CCCN2)cc1.Cl [Compound 8, (S)-1-(4-Octylphenyl)-2-(pyrrolidin-2-yl)ethan-1-one hydrochloride]
[1]
  IC50: 2.5 µM
[2]; 2.5 μM
  inhibition at 2.5 µM: 78%
[2]; 10 μM
  inhibition at 10 µM: 57%
[3]
  racemization / epimerization after N-Boc deprotection: prone to racemization and epimerization

## CCCCCCCCc1ccc(CC[C@@H]2CCCN2)cc1 [Compound 9, (R)-2-(4-Octylphenethyl)pyrrolidine hydrochloride]
[1]
  IC50: 2.8 µM
[2]; 2.5 μM
  inhibition at 2.5 µM: 41%
[2]; 10 μM
  inhibition at 10 µM: 63%

## CCCCCCCCc1ccc(C(=O)C[C@@H]2C[C@@H](O)CN2)cc1.Cl [Compound 11, (2S,4R)-4-Hydroxy-2-(2-(4-octylphenyl)-2-oxoethyl)pyrrolidin-1-ium chloride]
[1]
  IC50: 2.1 µM
[2]; 2.5 μM
  inhibition at 2.5 µM: 22%
[2]; 10 μM
  inhibition at 10 µM: 46%
[3]
  racemization / epimerization after N-Boc deprotection: prone to racemization and epimerization

## CCCCCCCCc1ccc(C(=O)CC[C@H]2C[C@H](CO)CN2)cc1.Cl [Compound 13, 3-(2S,4S)-4-(Hydroxymethyl)pyrrolidin-2-yl)-1-(4-octylphenyl)propan-1-one hydrochloride]
[1]
  IC50: 4 µM

## CCCCCCCCc1ccc(C(=O)CC[C@H]2C[C@H](CO)CN2)cc1.Cl [Compound 13]
[2]; 2.5 μM
  % CD98 down-regulation: 8%
[2]; 10 μM
  % CD98 down-regulation: 46%
[4]; 2.5 μM
  Vacuolation score: 0

## CCCCCCCCc1ccc([C@@H]2CCC3C[C@H](CO)CN32)cc1.Cl (stereo partly drawn) [Compound 14, ((2S,5S)-5-(4-Octylphenyl)hexahydro-1H-pyrrolizin-2-yl)methanol hydrochloride]
[1]
  IC50: 12.4 µM
[1]; hydrochloride
  IC50: 12.2 µM
[2]; 2.5 μM
  inhibition at 2.5 µM: 0%
[2]; 10 μM
  inhibition at 10 µM: 32%
[2]; 40 μM
  inhibition at 40 µM: 68%
[4]; 2.5 μM
  Vacuolation score: 0
[4]; 10 μM
  Vacuolation score: 0

## CCCCCCCCc1ccc(C(=O)CC[C@@H]2C[C@@H](O)CN2)cc1 [Compound 15, (2R,4R)-4-Hydroxy-2-(3-(4-octylphenyl)-3-oxopropyl)pyrrolidin-1-ium chloride]
[1]
  IC50: 2.1 µM
[2]; 2.5 μM
  inhibition at 2.5 µM: 15%
[2]; 10 μM
  inhibition at 10 µM: 52%

## CCCCCCCCc1ccc(C[C@@H]2C[C@@H](O)CN2)cc1 [Compound 16, (3R,5R)-5-(4-Octylbenzyl)pyrrolidin-3-ol]
[1]
  IC50: 2.2 µM
[2]; 2.5 μM
  inhibition at 2.5 µM: 40%
[2]; 10 μM
  inhibition at 10 µM: 63%

## CCCCCCCCc1ccc(C(=O)[C@@H]2CCCN2)cc1.Cl [Compound 19, (S)-2-(4-Octylbenzoyl)pyrrolidin-1-ium chloride]
[2]; 2.5 μM
  inhibition at 2.5 µM: -21%
[2]; 10 μM
  inhibition at 10 µM: -4%
[2]; 40 μM
  inhibition at 40 µM: 33%
[4]; 2.5 μM
  Vacuolation score: 0
[4]; 10 μM
  Vacuolation score: 0

## CCCCCCCCc1ccc(C(=O)[C@@H]2C[C@@H](O)CN2)cc1.Cl [Compound 20, (2S,4R)-4-Hydroxy-2-(4-octylbenzoyl)pyrrolidin-1-ium chloride]
[1]
  IC50: 28.1 µM
[2]; 2.5 μM
  inhibition at 2.5 µM: 2%
[2]; 10 μM
  inhibition at 10 µM: 9%
[2]; 40 μM
  inhibition at 40 µM: 48%
[4]; 2.5 μM
  Vacuolation score: 0

## CCCCCCCCc1ccc(C(=O)[C@H]2C[C@H](O)CN2)cc1.Cl [Compound 21, (2R,4S)-4-Hydroxy-2-(4-octylbenzoyl)pyrrolidin-1-ium chloride]
[1]
  IC50: 15.3 µM
[2]; 2.5 μM
  inhibition at 2.5 µM: 12%
[2]; 10 μM
  inhibition at 10 µM: 51%
[2]; 40 μM
  inhibition at 40 µM: 41%
[4]; 2.5 μM
  Vacuolation score: 0
[4]; 10 μM
  vacuolation (in words): reached maximum vacuolation

## CCCCCCCCc1ccc(C(=O)[C@H]2C[C@H](CO)CN2)cc1.Cl [Compound 22, ((2R,4S)-4-(Hydroxymethyl)pyrrolidin-2-yl)(4-octylphenyl)methanone hydrochloride]
[1]
  IC50: 19.6 µM
[2]; 2.5 μM
  inhibition at 2.5 µM: 0%
[2]; 10 μM
  inhibition at 10 µM: 19%
[2]; 40 μM
  inhibition at 40 µM: 61%
[4]; 2.5 μM
  Vacuolation score: 0
[4]; 10 μM
  Vacuolation score: 0

## CCCCCCCCc1ccc(CC(=O)[C@@H]2C[C@@H](O)CN2)cc1.Cl [Compound 23, (2S,4R)-4-Hydroxy-2-(2-(4-octylphenyl)acetyl)pyrrolidin-1-ium chloride]
[1]
  IC50: 18.6 µM
[2]; 2.5 μM
  inhibition at 2.5 µM: 13%
[2]; 10 μM
  inhibition at 10 µM: 23%
[2]; 40 μM
  inhibition at 40 µM: 59%
[4]; 2.5 μM
  Vacuolation score: 0
[4]; 10 μM
  Vacuolation score: 0

## CCCCCCCCc1ccc(CC(=O)[C@H]2C[C@H](O)CN2)cc1.Cl [Compound 24, (2R,4S)-4-Hydroxy-2-(2-(4-octylphenyl)acetyl)pyrrolidin-1-ium chloride]
[1]
  IC50: 17.1 µM
[2]; 2.5 μM
  inhibition at 2.5 µM: 11%
[2]; 10 μM
  inhibition at 10 µM: 16%
[2]; 40 μM
  inhibition at 40 µM: 54%
[4]; 2.5 μM
  Vacuolation score: 0
[4]; 10 μM
  Vacuolation score: 0

## CCCCCCCCc1ccc(CC(O)[C@@H]2C[C@@H](O)CN2)cc1 (stereo partly drawn) [Compound 25, (2S,4R)-4-Hydroxy-2-(1-hydroxy-2-(4-octylphenyl)ethyl)pyrrolidin-1-ium chloride]
[1]
  IC50: 3 µM
[2]; 2.5 μM
  inhibition at 2.5 µM: 19%
[2]; 10 μM
  inhibition at 10 µM: 62%

## CCCCCCCCc1ccc(CC(O)[C@H]2C[C@H](O)CN2)cc1.Cl (stereo partly drawn) [Compound 26, (2R,4S)-4-Hydroxy-2-(1-hydroxy-2-(4-octylphenyl)ethyl)pyrrolidin-1-ium chloride]
[1]
  IC50: 1.8 µM
[2]; 2.5 μM
  inhibition at 2.5 µM: 9%
[2]; 10 μM
  inhibition at 10 µM: 62%
[2]; [5]
  nutrient transporter down-regulation: does not down-regulate nutrient transporter proteins
[4]; 2.5 μM
  Vacuolation score: 0
[4]; [5]
  vacuolation: does not down-regulate nutrient transporter proteins or vacuolate

## CCCCCCCCc1ccc(C(=O)[C@@H]2C[C@@H](OP(=O)(O)O)CN2)cc1.Cl [Compound 29, (2S,4R)-2-(4-Octylbenzoyl)-4-(phosphonooxy)pyrrolidin-1-ium chloride]
[1]
  IC50: 12.9 µM
[2]; 10 μM
  % CD98 down-regulation: 3%
[2]; 40 μM
  % CD98 down-regulation: −8%
[2]
  activity in downregulation tests: totally inactive
[4]; 2.5 μM
  Vacuolation score: 0
[4]; 10 μM
  Vacuolation score: 0
[4]; 40 μM
  Vacuolation score: 0
[4]
  activity in vacuolation tests: totally inactive

## CCCCCCCCc1ccc(C(=O)[C@@H]2C[C@@H](OP(=O)(O)O)CN2)cc1.Cl [Compound 30, (2S,4R)-2-(4-Octylbenzoyl)-4-(phosphonooxy)pyrrolidin-1-ium chloride]
[1]
  IC50: 12.8 µM
[2]; 10 μM
  % CD98 down-regulation: −9%
[2]; 40 μM
  % CD98 down-regulation: −0%
[2]
  activity in downregulation tests: totally inactive
[4]; 2.5 μM
  Vacuolation score: 0
[4]; 10 μM
  Vacuolation score: 0
[4]; 40 μM
  Vacuolation score: 0
[4]
  activity in vacuolation tests: totally inactive

## CCCCCCCCc1ccc(CC(=O)[C@@H]2C[C@@H](OP(=O)(O)O)CN2)cc1.Cl [Compound 31, (2S,4R)-2-(2-(4-Octylphenyl)acetyl)-4-(phosphonooxy)pyrrolidin-1-ium chloride]
[1]
  IC50: 25 µM
[2]; 10 μM
  inhibition at 10 µM: 3%
[2]; 40 μM
  inhibition at 40 µM: 0%
[2]
  activity in downregulation tests: totally inactive
[4]; 10 μM
  Vacuolation score: 0
[4]; 40 μM
  Vacuolation score: 0
[4]
  activity in vacuolation tests: totally inactive

## CCCCCCCCc1ccc(CC(=O)[C@H]2C[C@H](OP(=O)(O)O)CN2)cc1.Cl [Compound 32, (2R,4S)-2-(2-(4-Octylphenyl)acetyl)-4-(phosphonooxy)pyrrolidin-1-ium chloride]
[1]
  IC50: 25.3 µM
[2]; 10 μM
  inhibition at 10 µM: 5%
[2]; 40 μM
  inhibition at 40 µM: 8%
[2]
  activity in downregulation tests: totally inactive
[4]; 10 μM
  Vacuolation score: 0
[4]; 40 μM
  Vacuolation score: 0
[4]
  activity in vacuolation tests: totally inactive
